Six molecules from paper PMC6352943, “Novel pyrazolo[3,4-d]pyrimidines: design, synthesis, anticancer activity, dual EGFR/ErbB2 receptor tyrosine kinases inhibitory activity, effects on cell cycle profile and caspase-3-mediated apoptosis” (Journal of Enzyme Inhibition and Medicinal Chemistry, 2019) can be followed below.

Holding throughout (assay): NCI 60 cell line single dose screen (SRB)
Assay type in all cases: cell-based

For assay [1], the system named is 786-0. The conditions noted are these: Homo sapiens; 786-0 (renal cancer), single dose 10^−5 M, 48 h; read-out: Growth inhibition percentage. The gist of the method:
(§1)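 Cells were plated and grown 24 h at 37 °C, 5% CO2 before compound addition from DMSO stock, then exposed 48 h. Adherent cells were fixed with cold TCA (final 10%) and suspension cells with 16% TCA. SRB-stained protein was read at 515 nm and percent growth was calculated against time-zero and untreated plates.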

Assay [2] deals with A498. The conditions noted are these: Homo sapiens; A498 (renal cancer), single dose 10^−5 M, 48 h; read-out: Growth inhibition percentage. The gist of the method:
as §1

Assay [3] relates to COLO 205. To be noted: Homo sapiens, COLO 205, 48 h; read-out: Growth inhibition percentage. The gist of the method: as §1
The test system of assay [4] is DU-145. The conditions noted are these: Homo sapiens; DU-145 (prostate cancer), single dose 10^−5 M, 48 h; read-out: Growth inhibition percentage. The gist of the method:
as §1

Assay [5] relates to EKVX. The conditions noted are these: Homo sapiens; EKVX (non-small cell lung cancer), single dose 10^−5 M, 48 h; read-out: Growth inhibition percentage. The gist of the method: as §1
Assay [6] has as its system HCT-116. The conditions noted are these: Homo sapiens; HCT-116 (colon cancer), single dose 10^−5 M, 48 h; read-out: Growth inhibition percentage. In a few lines: as §1
Assay [7] deals with HOP-62. To be noted: Homo sapiens; HOP-62 (non-small cell lung cancer), single dose 10^−5 M, 48 h; read-out: Growth inhibition percentage. In a few lines:
as §1

For assay [8], the system named is HS 578T. The conditions noted are these: Homo sapiens; HS 578T (breast cancer), single dose 10^−5 M, 48 h; read-out: Growth inhibition percentage. In a few lines:
as §1

Assay [9] relates to K-562. The conditions noted are these: Homo sapiens, K562; K-562 (leukemia), single dose 10^−5 M, 48 h; read-out: Growth inhibition percentage. The gist of the method:
as §1

The test system of assay [10] is LOX IMVI. To be noted: Homo sapiens; LOX IMVI (melanoma), single dose 10^−5 M, 48 h; read-out: Growth inhibition percentage. The gist of the method:
as §1

Assay [11] relates to MALME-3M. To be noted: Homo sapiens; MALME-3M (melanoma), single dose 10^−5 M, 48 h; read-out: Growth inhibition percentage. In a few lines:
as §1

For assay [12], the system named is MCF7. The conditions noted are these: Homo sapiens; MCF7 (breast cancer), single dose 10^−5 M, 48 h; read-out: Growth inhibition percentage. The gist of the method: as §1
Assay [13] has as its system MDA-MB-231/ATCC. To be noted: Homo sapiens; MDA-MB-231/ATCC (breast cancer), single dose 10^−5 M, 48 h; read-out: Growth inhibition percentage. In a few lines:
as §1

The subject of assay [14] is MDA-MB-468. To be noted: Homo sapiens; MDA-MB-468 (breast cancer), single dose 10^−5 M, 48 h; read-out: Growth inhibition percentage. The gist of the method: as §1
In assay [15] the test system is NCI-H226. To be noted: Homo sapiens; NCI-H226 (non-small cell lung cancer), single dose 10^−5 M, 48 h; read-out: Growth inhibition percentage. In a few lines: as §1
For assay [16], the system named is NCI-H322M. To be noted: Homo sapiens; NCI-H322M (non-small cell lung cancer), single dose 10^−5 M, 48 h; read-out: Growth inhibition percentage. The gist of the method:
as §1

In assay [17] the test system is OVCAR-3. The conditions noted are these: Homo sapiens; OVCAR-3 (ovarian cancer), single dose 10^−5 M, 48 h; read-out: Growth inhibition percentage. In a few lines: as §1
Assay [18] relates to OVCAR-4. The conditions noted are these: Homo sapiens; OVCAR-4 (ovarian cancer), single dose 10^−5 M, 48 h; read-out: Growth inhibition percentage. In a few lines: as §1
In assay [19] the test system is OVCAR-8. To be noted: Homo sapiens; OVCAR-8 (ovarian cancer), single dose 10^−5 M, 48 h; read-out: Growth inhibition percentage. In a few lines:
as §1

For assay [20], the system named is SK-MEL-28. The conditions noted are these: Homo sapiens; SK-MEL-28 (melanoma), single dose 10^−5 M, 48 h; read-out: Growth inhibition percentage. The gist of the method:
as §1

The subject of assay [21] is T-47D. To be noted: Homo sapiens, T47D; T-47D (breast cancer), single dose 10^−5 M, 48 h; read-out: Growth inhibition percentage. In a few lines: as §1

As to `Cc1nn(-c2ccc(F)cc2)c2ncnc(N3CCOCC3)c12` [Compound 8a, 1–(4-Fluorophenyl)-3-methyl-4-morpholino-1H-pyrazolo[3,4-d]pyrimidine], the inhibition at 10 µM in [1] is 10.6%; in assay [2] it was 4.93%; in [3], -7.19%; in assay [4] it was -7.7%; in assay [5], 19.5%; in assay [6], -7.69%. For the same molecule, the inhibition at 10 µM is -13.6% in [7]; -4.78% in assay [8]; -3.68% in [9]; -2.33% in [10]; -10.5% in assay [11]; 9.07% in [12]. The inhibition at 10 µM in assay [13] is -10.4%; in [14] it was -7.8%; in [15] it was -8.48%; in assay [16] it was 5.51%; in [17], -5.65%; in [18], -10.7%. In addition, the inhibition at 10 µM is -5.87% in assay [19], -12.6% in assay [20] and -22.2% in [21].
On to `Cc1ccc(Nc2ncnc3c2c(C)nn3-c2ccc(F)cc2)cc1` [Compound 7c, 1–(4-Fluorophenyl)-3-methyl-N-(p-tolyl)-1H-pyrazolo[3,4-d]-pyrimidin-4-amine], for which the inhibition at 10 µM in [1] is 0.56%; in [2], 5.97%; in assay [3], -13.3%; in [4], -8.97%; in [5], 3.39%; in assay [6], 3.2%. Also, the inhibition at 10 µM in assay [7] was -14.5%; in assay [8], 0.7%; in assay [9], 0.26%; in [10], -0.99%; in [11], 1.7%; in [12], 6.19%. Further, the inhibition at 10 µM in assay [13] was -2.67%; in [14], -15%; in assay [15], -10.2%; in assay [16], 10%; in [17], -6.58%; in [18] it was -3.91%. Besides, the values for the inhibition at 10 µM in [19], in [20] and in assay [21] were 2.02%, -11.1% and 14.6%, respectively.
As for `Cc1nn(-c2ccc(F)cc2)c2ncnc(Cl)c12` [Compound 6, 4-Chloro-1–(4-fluorophenyl)-3-methyl-1H-pyrazolo[3,4-d]pyrimidine], the inhibition at 10 µM in assay [1] is -0.09%; in [2], 4.71%; in assay [3] it was -14.9%; in assay [4], 3.05%; in [5], 9.08%; in [6], 7.98%. For the same molecule, the inhibition at 10 µM in assay [7] was 15.4%; in assay [8], 4.54%; in assay [9] it was 15.4%; in assay [10], 6.64%; in [11], -4.3%; in [12], 11.6%. The inhibition at 10 µM in assay [13] was 10.8%; in assay [14], 8.7%; in assay [15] it was 15.1%; in assay [16], 5.32%; in assay [17] it was -8.39%; in assay [18] it was -0.8%. Also, the results for the inhibition at 10 µM in assay [19], in assay [20] and in assay [21] were 6.34%, -4.92% and 0.28%, respectively.
As to `COc1cc(C=NNc2ncnc3c2c(C)nn3-c2ccc(F)cc2)cc(OC)c1OC` [Compound 10c, 1–(4-Fluorophenyl)-3-methyl-4–(2-(3,4,5-trimethoxybenzylidene)-hydrazinyl)-1H-pyrazolo[3,4-d]pyrimidine], the inhibition at 10 µM in [1] is 1.85%; in assay [2], 22%; in [3], -6.78%; in [4], -4.94%; in [5], 10%; in [6] it was 3.15%. The inhibition at 10 µM was 0.38% in [7]; 13.9% in [8]; -3.02% in [9]; 9.33% in assay [10]; 12.6% in assay [11]; 1.96% in assay [12]. In addition, the inhibition at 10 µM in assay [13] was 16.5%; in assay [14], -4.81%; in [15], 5.82%; in assay [16], 13.5%; in assay [17] it was -0.3%; in [18], -8.66%. The inhibition at 10 µM in [19] is -1.23%; in [20] it was 1.3%; in assay [21] it was 16.8%.
As to `Cc1nn(-c2ccc(F)cc2)c2nc[nH]c(=O)c12` [Compound 3, 1–(4-Fluorophenyl)-3-methyl-1H-pyrazolo[3,4-d]pyrimidin-4(5H)-one], the inhibition at 10 µM in assay [1] was 1.16%; in assay [2], 0.02%; in assay [3], -14.9%; in assay [4], -6.51%; in [5], 36.2%; in assay [6] it was -1.64%. Further, the inhibition at 10 µM was -6.53% in assay [7]; 0.13% in assay [8]; 1.69% in assay [9]; 2.19% in assay [10]; -8.22% in assay [11]; 2.7% in assay [12]. Moreover, the inhibition at 10 µM in assay [13] was -9.78%; in assay [14], -11.5%; in assay [15], -9.27%; in [16] it was 5.19%; in assay [17] it was -5.82%; in assay [18], -8.19%. Further, the inhibition at 10 µM in assay [19] is -0.16%; in assay [20] it was -14.1%; in assay [21] it was 0.23%.
Turning to `Cc1nn(-c2ccc(F)cc2)c2ncnc(Nc3ccc(F)c(Cl)c3)c12` [Compound 7d, N-(3-Chloro-4-fluorophenyl)-1–(4-fluorophenyl)-3-methyl-1H-pyrazolo[3,4-d] pyrimidin-4-amine], the inhibition at 10 µM in assay [1] was 21.3%; in assay [2] it was -5.43%; in assay [3], -3.96%; in [4], -3.13%; in assay [5], 14.5%; in [6], 19.2%. Also, the inhibition at 10 µM came out at 38.7% in assay [7]; 21.5% in assay [8]; 1.78% in assay [9]; 8.68% in assay [10]; 1.56% in assay [11]; 15.7% in assay [12]. Besides, the inhibition at 10 µM was 14.2% in [13]; -1.69% in assay [14]; 62.9% in assay [15]; 12% in [16]; 9.57% in assay [17]; 53.1% in assay [18]. Besides, the inhibition at 10 µM in assay [19] was 16.6%; in assay [20], -4.63%; in assay [21] it was 27.4%.

What is called inhibition is the change of the read-out against control, counted positive when it falls.
